Source: patent publication US20110318768A1, “METHOD FOR DETERMINING SENSITIVITY OF TUMOR CELLS TO TYROSINE KINASE INHIBITOR AND COMPUTER PROGRAM PRODUCT” (SYSMEX CORPORATION, priority 2010, published 2011)

Experiments:
tyrosine kinase of MCF7 = details: US 2011027809; cited from earlier work
[1] = tested on: tyrosine kinase of MDA-MB231; details: US 2011027809; cited from earlier work
[2] = tested on: tyrosine kinase of SK-Br-3; details: US 2011027809; cited from earlier work
[3] = tested on: tyrosine kinase in cell membrane fraction of ZR-75-1; experiment: Tyrosine kinase activity inhibition rate in cell membrane fraction (Poly-Glu4-Tyr substrate); format: biochemical
Outline: (§1)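 Each inhibitor is tested at a single 25 μM against membrane-fraction kinase (5 μg/ml protein) with 25 μM ATP. Substrate is biotinylated Poly-Glu4-Tyr on NeutrAvidin wells, 37 °C for 60 min. Signal comes from anti-pTyr-HRP chemiluminescence, relative to DMSO control.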

[4] = tested on: tyrosine kinase in cell membrane fraction of HS578T; experiment: as above; format: biochemical
Outline: as §1

[5] = tested on: tyrosine kinase in cell membrane fraction of MDA-MB-231; experiment: as above; format: biochemical
Outline: as §1

[6] = tested on: tyrosine kinase in cell membrane fraction of BT-483; experiment: as above; format: biochemical
Outline: as §1

[7] = tested on: tyrosine kinase in cell membrane fraction of HCC1419; experiment: as above; format: biochemical
Outline: as §1

[8] = tested on: tyrosine kinase in cell membrane fraction of UACC812; experiment: as above; format: biochemical
Outline: as §1

[9] = tested on: tyrosine kinase in cell membrane fraction of HCC202; experiment: as above; format: biochemical
Outline: as §1

[10] = tested on: tyrosine kinase in cell membrane fraction of BT-474; experiment: as above; format: biochemical
Outline: as §1

[11] = tested on: tyrosine kinase in cell membrane fraction of CAMA-1; experiment: as above; format: biochemical
Outline: as §1

[12] = tested on: tyrosine kinase in cell membrane fraction of MDA-MB-436; experiment: as above; format: biochemical
Outline: as §1

[13] = tested on: tyrosine kinase in cell membrane fraction of SK-BR-3; experiment: as above; format: biochemical
Outline: as §1

[14] = tested on: tyrosine kinase in cell membrane fraction of MDA-MB-453; experiment: as above; format: biochemical
Outline: as §1

[15] = 25 μM kinase inhibitor, 25 μM ATP

In the case of `COc1cc2ncnc(Nc3ccc(Oc4ccccc4)cc3)c2cc1OC` [Inhibitor 10, 4-(4′-phenoxyanilino)-6,7-dimethoxyquinazoline], the “tyrosine kinase activity inhibitory effects caused by the Src inhibitor” value (tyrosine kinase of MCF7) is listed as “low”, the “tyrosine kinase activity inhibitory effects caused by the Src inhibitor” value [1] is listed as “low” and the “tyrosine kinase activity inhibitory effects caused by the Src inhibitor” value [2] is listed as “high”. The “Example 1 Inhibitory capacity of Src inhibitor” value (from here on “Example 1 Inhibitory capacity”) [3] was “high (the term “high” means a cell line whose inhibition rate of the Src inhibitor is more than the threshold value)”, the Inhibition rate [3, 15] was 55.8% and the “Example 1 Inhibitory capacity” value [4] was “high (the term “high” means a cell line whose inhibition rate of the Src inhibitor is more than the threshold value)”. The Inhibition rate [4, 15] was 58.2%, the “Example 1 Inhibitory capacity” value [5] was “high (the term “high” means a cell line whose inhibition rate of the Src inhibitor is more than the threshold value)” and the Inhibition rate [5, 15] was 63.6%. The “Example 1 Inhibitory capacity” value [6] was “high (the term “high” means a cell line whose inhibition rate of the Src inhibitor is more than the threshold value)”, the Inhibition rate [6, 15] was 78.5% and the “Example 1 Inhibitory capacity” value [7] was “low (the term “low” means a cell line whose inhibition rate of the Src inhibitor is lower than the threshold value (=43.4%))”. For the same compound, the Inhibition rate [7, 15] was 36.3%, the Inhibition rate ([8]; UACC812, 25 μM kinase inhibitor, 25 μM ATP) was 81.5% and the “Example 1 Inhibitory capacity” value ([8]; UACC-812) was “high (the term “high” means a cell line whose inhibition rate of the Src inhibitor is more than the threshold value)”. The “Example 1 Inhibitory capacity” value [9] was “low (the term “low” means a cell line whose inhibition rate of the Src inhibitor is lower than the threshold value (=43.4%))”, the Inhibition rate [9, 15] was 26.3% and the “Example 1 Inhibitory capacity” value [10] was “low (the term “low” means a cell line whose inhibition rate of the Src inhibitor is lower than the threshold value (=43.4%))”. The Inhibition rate [10, 15] was 37.6%, the “Example 1 Inhibitory capacity” value [11] was “low (the term “low” means a cell line whose inhibition rate of the Src inhibitor is lower than the threshold value (=43.4%))” and the Inhibition rate [11, 15] was 34.6%. For the same compound, the “Example 1 Inhibitory capacity” value [12] was “high (the term “high” means a cell line whose inhibition rate of the Src inhibitor is more than the threshold value)”, the Inhibition rate [12, 15] was 44.9% and the “Example 1 Inhibitory capacity” value [13] was “low (the term “low” means a cell line whose inhibition rate of the Src inhibitor is lower than the threshold value (=43.4%))”. For the same compound, the Inhibition rate [13, 15] was 43.3%, the “Example 1 Inhibitory capacity” value [14] was “low (the term “low” means a cell line whose inhibition rate of the Src inhibitor is lower than the threshold value (=43.4%))” and the Inhibition rate [14, 15] was 16.3%.
